Columns and labels:
human recombinant sEH = target: T1, human recombinant sEH (Homo sapiens, UniProt P34913); test: sEH activity assay (PHOME substrate); type: biochemical; conditions: Table 2; human isolated sEH; mean ± SEM
T1 construct: made in house; host or cells: Sf9 insect cells (recombinant baculovirus)
T1 sequence (P34913 1-555): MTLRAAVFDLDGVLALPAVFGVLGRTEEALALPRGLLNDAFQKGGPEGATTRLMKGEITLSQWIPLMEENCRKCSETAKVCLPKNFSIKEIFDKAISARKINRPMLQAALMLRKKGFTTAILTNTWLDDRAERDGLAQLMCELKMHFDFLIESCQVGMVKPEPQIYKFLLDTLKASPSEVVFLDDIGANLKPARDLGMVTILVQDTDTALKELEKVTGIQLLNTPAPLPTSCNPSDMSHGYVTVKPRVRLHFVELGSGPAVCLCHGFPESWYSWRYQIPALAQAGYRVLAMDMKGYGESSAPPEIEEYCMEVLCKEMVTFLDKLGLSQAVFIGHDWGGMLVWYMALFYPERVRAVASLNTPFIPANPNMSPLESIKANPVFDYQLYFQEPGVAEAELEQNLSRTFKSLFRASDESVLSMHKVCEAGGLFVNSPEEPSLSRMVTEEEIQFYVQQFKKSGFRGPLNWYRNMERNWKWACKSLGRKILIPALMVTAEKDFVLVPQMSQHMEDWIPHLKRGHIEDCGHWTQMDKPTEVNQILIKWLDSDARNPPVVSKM

5-LOX = target: T2, 5-LOX (Homo sapiens, UniProt P09917); test: Cell-free 5-LOX activity assay; type: biochemical; set-up: made in house; host or cells: Escherichia coli Bl21 (DE3); conditions: Table 2; human isolated 5-LOX; mean ± SEM
T2 sequence (P09917 1-674): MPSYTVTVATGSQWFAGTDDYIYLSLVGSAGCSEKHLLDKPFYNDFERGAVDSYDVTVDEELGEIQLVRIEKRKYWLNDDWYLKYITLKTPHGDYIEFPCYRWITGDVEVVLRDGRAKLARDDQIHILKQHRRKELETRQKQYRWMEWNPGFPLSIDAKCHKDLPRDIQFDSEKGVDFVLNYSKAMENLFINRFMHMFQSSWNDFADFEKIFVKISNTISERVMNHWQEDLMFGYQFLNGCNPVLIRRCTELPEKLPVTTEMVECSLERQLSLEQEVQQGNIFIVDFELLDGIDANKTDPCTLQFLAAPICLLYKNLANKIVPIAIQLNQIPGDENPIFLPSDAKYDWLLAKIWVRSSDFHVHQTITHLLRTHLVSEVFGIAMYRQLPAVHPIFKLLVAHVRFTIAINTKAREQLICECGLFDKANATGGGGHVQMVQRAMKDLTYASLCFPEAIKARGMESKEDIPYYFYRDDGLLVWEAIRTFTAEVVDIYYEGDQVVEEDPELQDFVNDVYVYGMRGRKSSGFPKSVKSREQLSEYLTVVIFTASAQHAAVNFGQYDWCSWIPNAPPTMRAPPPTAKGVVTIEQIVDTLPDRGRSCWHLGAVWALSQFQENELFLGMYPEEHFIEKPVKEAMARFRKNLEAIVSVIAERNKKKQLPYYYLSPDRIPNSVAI

[1] = In vivo plasma levels of 73; conditions: mouse, ip, mean ±SD

Row | Compound | IC50 (human recombinant sEH) [µM] | IC50 (5-LOX) [µM] | concentration at 0.5 h ([1]; 0.5 h after 10 mg Kg-1 intraperitoneal) [ng/mL] | concentration at 1 h ([1]; 1 h after 10 mg Kg-1 intraperitoneal) [ng/mL] | concentration at 2 h ([1]; 2 h after 10 mg Kg-1 intraperitoneal) [ng/mL] | concentration at 4 h ([1]; 4 h after 10 mg Kg-1 intraperitoneal) [ng/mL]
1 | 1-(1-(4-Aminobutyl)indolin-5-yl)-3-neopentylthiourea [compound 51] | > 10 | > 10 |  |  |  | 
2 | 4-(3-(1-(4-Fluorobenzyl)indolin-5-yl)thioureido)benzoic Acid [compound 58] | > 10 |  |  |  |  | 
3 | CC(C)(C)CNC(=S)Nc1ccc2c(c1)CCN2Cc1ccc(N=O)cc1 [compound 73, 1-Neopentyl-3-(1-(4-nitrosobenzyl)indolin-5-yl)thiourea] |  |  | 15.4 ± 2.5 | 12.3 ± 0.9 | 10.6 ± 0.6 | 1.1 ± 0.1

— publication PMC9661480, “Discovery and Optimization of Indoline-Based Compounds as Dual 5-LOX/sEH Inhibitors: In Vitro and In Vivo Anti-Inflammatory Characterization” (Journal of Medicinal Chemistry, 2022)
